What all share (type): cell-based, human
Assay [1] deals with T47D cells with doxycycline inducible PSMD2 KD (Lo19S) versus control cells. The experiment in a line: Lo19S T47D drug screen (PSMD2 KD versus control cells, CellTiter-Glo). The note with it: for viability of PSMD2 KD versus control cells: Selleck natural product library (NPC) and NIH bioactive compound library, selectivity less than for the anti-cancer library hits; for viability of PSMD2 KD versus control cells (log2 (shPSMD2/Control)): T47D, Lo19S state by dox-inducible PSMD2 shRNA, compound library screen, 72 h, CellTiter-Glo. The protocol: The effect of each drug on viability of cells was calculated by averaging the duplicate experiments. The data is plotted in FIG. 16 as the log2 of the ratio of viability of PSMD2 KD versus control cells (log2 (shPSMD2/Control)). […] The Selleck natural product library (NPC) comprising 502 compounds in 5 doses and the. NIH bioactive compound library that includes 731 compounds in 4 doses were also screened using the same system.
A deeper understanding of the proteasome inhibitor resistant state could yield insights into the molecular mechanisms activated by cells to cope with proteotoxic stress and elucidate new therapeutic strategies for cancer. With these goals in mind, we screened mechanistically diverse small molecule libraries to identify compound sensitivities altered by the Lo19S and Hi-OXPHOS states. An initial screen was conducted in the isogenic T47D model with transient induction of the Lo19S state as described above, We evaluated >4300 mechanistically well-defined compounds within 4 libraries. The compounds included approved cancer drugs (Selleck anti-cancer library: CDL), common natural products (Natural product library: NPC) and an ^-NIH bioactives library (NIH). Each of these compounds was tested at ≥4 concentrations. (Table S5, data not shown), An additional 2866 compounds from the Boston University's Chemical Methodology and Library Development (CMLD-BU) small molecule collection was screened at a single dose (BULL, see Table S5).
(§1) Generation of the Lo19S T47D cell line—For the generation of the T47D Tet-inducible PSMD2 knockdown cell line—the TRIPZ vector with an inducible shRNA targeting PSMD2 was purchased from Dharmacon (clone V3THS_403760). It was introduced to the T47D cells according to manufactures protocol and cells were selected with puromycin 1 g/ml for one week. The cells were exposed to doxycycline for 24 hours and cells were FACS sorted for the top 10% of most RFP expressing cells (highest expression of shRNA). The cells were further cultured in the absence of doxycycline and PSMD2 knockdown was induced as specified in the text.
After 48 hours the cells were collected counted and plated (in the absence of dox) at 1000 cells/well in 384-well opaque, white assay plates (Coming, NY), 50 uL per well, and incubated overnight at 37° C./5% CO2. Compound stocks from the Cancer drug library containing 349 bioactive compounds that were arrayed in dose 10 nM, 100 nM, 1 uM, 10 uM (Selleck anti-cancer compound library L3000), the natural products library containing 502 compounds that were utilized in 5 doses (dilution of 1:1000 of 2ug/ml, 0.2 ug/ml, 0.002/ug/ml, 0.0002 ug/ml), the NIH bioactive library including 731 drugs in dose of 10 nM, 100 nM, 1 uM, 10 uM and the Boston University's CMLD (Chemical Methodology and Library Development) compound deck containing 2866 compounds in one dose (10 uM), including novel chemotypes that uniquely probe three-dimensional space by employing stereochemical and positional variation within the molecular framework as diversity elements in library design. 50 nl of compounds were pin-transferred (V&P Scientific, CA, pin tool mounted onto Tecan Freedom Evo 150 MCA96 head, Tecan, Calif.) into duplicate assay plates and incubated for 72 h. The DMSO content was 0.1% within each well, Per plate, there are 32 wells of DMSO vehicle control and 32 wells of positive control compounds. After three days of incubation, 10 uL of CellTiter-Glo (Promega, Wis.) was added to each well, incubated for 10 minutes and the luminescence output was read on the M1000 Infinite Pro plate reader (Tecan, Calif.).
A general note: In ATP-based viability assays light output follows the ATP content of the culture.

Assay [2] concerns T47D cells. Kind of assay: The glucose/galactose drug screen. The note with it: 10 mM Glucose or Galactose, Selleck anti cancer and natural product libraries. On the procedure:
We conducted a second set of drug screens to identify unique sensitivities conferred by the Hi-OXPHOS state using parental T47D breast cancer cells (without 19S subunit suppression). For this screen, we used the NPC and CDL libraries as they contained the greatest number of hits in the Lo19S screen. We tested over 800 compounds at multiple concentrations and measured their effects on relative cell growth/viability when cells were grown under aerobic glycolysis conditions (glucose-supplemented medium) or forced mitochondrial respiration conditions (galactose-supplemented medium).
The glucose/galactose drug screen—T47D cells growing in regular media were collected counted and after centrifugation cells were re-suspended in RPM1 media without glucose containing 10% dialyzed serum with the addition of either 10 mM glucose or 10 mM galactose, Cells were then plated at 1000 cells/well in 384-well opaque, white assay plates (Coming, N.Y.), 50 uL per well, and incubated overnight at 37°C./5% CO2. Application of the drug libraries and cell viability was executed as described above for the Lo19S drug screen.

For assay [3], the system named is T47D cells. Kind of assay: Drug library screen (Selleck anti-cancer, NPC, NIH bioactive), PSMD2 KD vs control T47D cells. The note with it: Selleck anti-cancer compound library screen. On the procedure:
Schematic representation of the drug screen setup. (FIG. 37A) 147D cells harboring a doxycycline-inducible PSMD2 shRNA were grown in the presence or absence of doxycycline for 48 hr. Cells were then collected, washed, and plated in the absence of doxycycline for 24 hr prior to exposure different compounds. Relative cell numbers were measured 3 days later.
The relative viability of the Lo19S versus control cells was calculated for replica experiments and the log2 of the ratio is plotted. […] The relative viability of the respiring cells (Hi-OXPHOS) (gal) versus the control cells (glu) was calculated for replica experiments and the log2 of the ratio is plotted.
After 48 hours the cells were collected, counted, and plated at 1000 cells/well in 384 well plates in duplicates for each cell line. Compounds from the Selleck Chemicals anti-cancer compound library (349 drugs in 4 concentrations; […]) were pinned the next day and viability was measured after 72 hours by the reduction of Resazurin (Ex=530 run, Em=590nin). (See FIG. 37A for schematic of screen.)

The test system of assay [4] is IMR32 (reduced PSMD5) and Kelly neuroblastoma cells. Kind of assay: Viability of IMR32 versus Kelly neuroblastoma cells (CellTiter-Glo). The following applies: ABT-263 versus more specific BCL2, BCL-XL and MCL-1 inhibitors. On the procedure:
To determine whether these compounds also differentially affect cells with reduced expression of PSDMS, IMR32 and Kelly cells were each cultured in the presence of ABT-263, disulfiram, or elesclomol across a range of concentrations. Cell viability was measured by CellTiter-Glo® Luminescent Cell Viability Assay 72 hours after addition of the compound to cells. The fold viability relative to culture in the absence of the compound was determined for each cell line. […] In the experiment shown in FIG. 24, the lowest lower concentration of ABT-263 and disulfiram tested was 1 uM.
ABT-263 targets several members of the BCL2 family, including BCL2 and BCL-XL.

Assay [5] deals with T47D cells. The experiment in a line: Cell viability, T47D cells with doxycycline-inducible PSMD2 shRNA (KD) vs control. The note with it: T47D, transient PSMD2 reduction. The protocol:
FIGS. 37A-37E: Subunit suppression results in highly specific drug sensitivity alteration. Schematic representation of the drug screen setup. (FIG. 37A) 147D cells harboring a doxycycline-inducible PSMD2 shRNA were grown in the presence or absence of doxycycline for 48 hr. Cells were then collected, washed, and plated in the absence of doxycycline for 24 hr prior to exposure different compounds. Relative cell numbers were measured 3 days later. […] (FIGS. 37C-37E) The relative viability of the PSMD2 knockdown (KD) versus the control was calculated for replica experiments and the log2 of the ratio is plotted for 349 compounds from the Selleck anti-cancer L3000 drug library that were tested in 4 concentrations (FIG. 37C), the Selleck natural product library (NPC) comprising 502 compounds in 5 doses (FIG. 37D), and the NIH bioactive compound library that includes 731 compounds in 4 doses (FIG. 37E). Specific compounds are annotated.
The effect of transient PSMD2 reduction on growth of T47D cells in the presence of different proteasome inhibitors (bortezomib, MLN9708, carfilzomib, oprozornib) was tested. T47D cells harboring a doxycycline inducible control shRNA (GFP) or a doxycycline-inducible PSMD2 shRNA (TurhoRFP) were incubated with doxycycline for 3 days. Cells were then split and grown in the absence of Dox and proteasome inhibitors were then added at various concentrations. Cells were maintained in culture and then counted.
as §1, with “For” for “Generation of the Lo19S T47D cell line—For”, “line- the” for “line—the”, “Dhannacon” for “Dharmacon”, “μg/ml” for “g/ml”, “relevant Examples. The TRIPZ control GFP vector was created by removing the turboRFP from the TRIPZ control vector by digestion with Agel and ClaI and replacing it with GFP amplified with primers flanking with Agel and Clal restriction sites.” for “text.”
Cell Viability Assay—Relative cell growth and survival were measured in 96-well microplate format in the shRNA experiments and in 384 well format in the drug toxicity assays, by using the fluorescent detection of resazurin dye reduction as an endpoint (544 nm excitation and 590 run emission). 2,500 cells in 96 wells format or 1,000 cells in 384 well format were plated 24 hours before compound exposure (for 72 hours or indicated time). Each analysis was performed at least with three replicas.

We go through ten molecules from patent US20180353445A1, “METHODS AND COMPOSITIONS RELATING TO PROTEASOME INHIBITOR RESISTANCE” (Whitehead Institute for Biomedical Research, priority 2017, published 2018).

As for `CN1C(=O)[C@]23CC4=CC=C[C@H](O)[C@H]4N2C(=O)[C@@]1(CO)SS3` [Gliotoxin], the “viability of PSMD2 KD versus control cells” value in assay [1] is reported as “selectively toxic to cells with PSMD2 knockdown”.

As for `C=C(C)[C@H]1Cc2c(ccc3c2O[C@@H]2COc4cc(OC)c(OC)cc4[C@@H]2C3=O)O1` [Rotenone], the “relative viability change of cells grown in glucose versus galactose” value (from here on “relative viability change of cells grown”) in assay [2] is recorded as “increased sensitivity”.

With `Nc1nc(Cl)nc2c1ncn2[C@H]1C[C@H](O)[C@@H](CO)O1` [cladribine, 2-chlorodeoxyadenosine], the “growth inhibition of T47D cells with reduced level of PSMD2 vs control T47D cells” value in assay [3] is listed as “selectively inhibit growth”. Moreover, the “viability of PSMD2 KD versus control cells (log2 (shPSMD2/Control))” value in assay [1] is listed as “selectively reduce the viability of PSMD2 KD cells versus control cells”.

On to `CC[C@@H]1/C=C/C=C/C[C@H](C)[C@H](O)[C@](C)(O)C(=O)[C@H](C)[C@@H](O)[C@H](C)C(=O)[C@H](C)[C@@H](O)[C@H](C)/C=C/C(=O)O[C@H]2[C@@H](C)[C@@H](CC1)O[C@@]1(CC[C@@H](C)[C@@H](C[C@H](C)O)O1)[C@@H]2C` [Oligomycin A], for which the “relative viability change of cells grown” value in assay [2] is “increased sensitivity”.

With `CCCCc1oc2ccccc2c1C(=O)c1cc(I)c(OCCN(CC)CC)c(I)c1` [cordarone], the “viability of PSMD2 KD versus control cells” value in assay [1] was “selectively toxic to cells with PSMD2 knockdown”.

Take `Cc1nn(C)c(COc2ccc(N3CCN(S(=O)(=O)N(C)C)CC3)cc2)c1-c1cccc2c(CCCOc3cccc4ccccc34)c(C(=O)O)n(CCN3CCOCC3)c12` [A-1210477]: in assay [4], the “preferential sensitivity of IMR32 versus Kelly cells, compared among BCL2 family inhibitors” value was “much greater for ABT-263”.

For the molecule `COc1ccc(-c2ccc3c(N4CCOCC4)nc(N4C[C@@H](C)O[C@@H](C)C4)nc3n2)cc1CO` [Ku-0063794], the “growth inhibition of T47D cells with reduced level of PSMD2 vs control T47D cells” value in assay [3] is on record as “selectively inhibit growth”. In assay [1], the “viability of PSMD2 KD versus control cells (log2 (shPSMD2/Control))” value is “selectively reduce the viability of PSMD2 KD cells versus control cells”.

As for `Nc1ccc2ncnc(NCCc3ccc(Oc4ccccc4)cc3)c2c1` [QNZ], the “relative viability change of cells grown” value in assay [2] is given as “increased sensitivity”.

Turning to `CC(C)C[C@H](NC(=O)[C@H](CCc1ccccc1)NC(=O)CN1CCOCC1)C(=O)N[C@@H](Cc1ccccc1)C(=O)N[C@@H](CC(C)C)C(=O)[C@@]1(C)CO1` [carfilzomib], the “resistance of cells harboring PSMD2 shRNA vs parental line (EC50)” value in assay [5] is “EC50 values increased considerably”.

In the case of `COc1cc2c(cc1OC)[C@@H]1C(=O)c3ccc4c(c3O[C@@H]1CO2)C=CC(C)(C)O4` [Degeulin], in assay [2], the “relative viability change of cells grown” value is “increased sensitivity”.
